In article PMC11869560, “Anticancer and cancer preventive activities of shogaol and curcumin from Zingiberaceae family plants in KG-1a leukemic stem cells” (BMC Complementary Medicine and Therapies, 2025):
In brackets after ≈: the same amount, converted by molar mass. Read-outs that look alike come from different tables or passages of the source.

Columns and labels:
KG-1a cells [1] = assay: MTT cytotoxicity assay in KG-1a cells; format: cell-based, human; details: for IC50 / IC20: Homo sapiens; for IC20: incubation for 48 h, read-out: IC20 KG-1a (inhibitory concentration at 20% growth); for Selectivity index (SI): IC50 for normal cells (PBMCs) / IC50 for cancer cells (KG-1a)
Procedure: (§1) MTT (3-(4,5-dimethylthiazol-2-yl)-2,5-diphenyltetrazolium bromide) assay was used to investigate the cytotoxicity of the test samples. KG-1a (1.5 × 10^4 cells/well), K562 (1.0 × 10^4 cells/well), PBMCs (1.0 × 10^5 cells/well), A549 (5.0 × 10^3 cells/well), MCF-7 (5.0 × 10^3 cells/well), and HeLa (5.0 × 10^3 cells/well) were seeded into a 96-well plate and incubated overnight at 37 °C with 5% CO2. […] After that, 5 mg/mL of MTT dye solution (Sigma-Aldrich, MA, USA) was added and incubated for 4 h. The produced formazan crystals were dissolved in 200 µL of DMSO (Sigma-Aldrich, MA, USA); then, the optical density (OD) was measured using an ELISA plate reader (Metertech, Taipei, Taiwan) at 578 nm with a reference wavelength of 630 nm. The percentage of surviving cells was calculated from the absorbance values of the test and control wells using the following Equation. 1 [drawing 1]
(§2) where ODsample is a mean absorbance in test well and ODvehicle control is a mean absorbance in VC well. The average percentage of surviving cells at each concentration obtained from triplicate experiments was plotted as a dose-response curve. Inhibitory concentration values at 50% growth (IC50 value) were defined as the lowest concentration of the test sample that inhibited cell growth by 50% compared to the untreated control.
(§3) To calculate IC50 values, a dose-response curve was fitted using non-linear regression analysis, as described in the GraphPad Prism guidelines (https://www.graphpad.com/support/faq/how-to-determine-an-icsub50sub/). The IC50 value was obtained by determining the point at which the curve intersected 50% growth inhibition. Non-linear regression graphs of the dose-response curve for each compound are provided in the supplementary data file (Figs. S1–S8).
where IC50 N is IC50 for normal cells and IC50 C is IC50 for cancer cells which were treated with the same compounds in both cells.

PBMCs = assay: MTT cytotoxicity assay in PBMCs; format: cell-based, human; details: Homo sapiens, PBMC; for IC20: incubation for 48 h, read-out: IC20 PBMCs (inhibitory concentration at 20% growth)
Procedure: PBMCs were isolated from blood samples using the Ficoll-Hypaque technique. Initially, 10–20 mL of blood was collected in a heparin tube at a ratio of 1:500 from a minimum of three healthy volunteers. Subsequently, the blood samples were diluted with Phosphate buffer saline (PBS), pH 7.4, at a ratio of 1:1 to reduce viscosity. Histopaque-1077 (Sigma-Aldrich, MA, USA) was then underlaid the diluted sample and centrifuged at 400×g for 30 min. The resulting PBMCs were collected, washed with PBS, pH 7.4, and prepared for further experiments.
as §1, §2, §3

RAW264.7 cells = assay: Cytotoxicity (IC20, cell viability) in RAW264.7 cells; format: cell-based; details: Mus musculus, read-out: IC20 RAW264.7 (inhibitory concentration at 20% growth)
Procedure: MTT (3-(4,5-dimethylthiazol-2-yl)-2,5-diphenyltetrazolium bromide) assay was used to investigate the cytotoxicity of the test samples. […] After that, 5 mg/mL of MTT dye solution (Sigma-Aldrich, MA, USA) was added and incubated for 4 h. The produced formazan crystals were dissolved in 200 μL of DMSO (Sigma-Aldrich, MA, USA); then, the optical density (OD) was measured using an ELISA plate reader ([…], Taiwan) at 578 nm with a reference wavelength of 630 nm. The percentage of surviving cells was calculated from the absorbance values of the test and control wells using the following Equation. 1 [drawing 1] […] Afterward, supernatants were collected, and the levels of TNF-α and NO were measured using the Mouse TNF alpha Uncoated ELISA Kit (InvitrogenTM, ThermoFisher Scientific, MA, USA) and the Total Nitric Oxide Assay Kit (InvitrogenTM, ThermoFisher Scientific, MA, USA), respectively, according to the manufacturer's instructions.

KG-1a cells [2] = assay: Trypan blue exclusion test, cell numbers of KG-1a cells; format: cell-based, human; details: IC20 concentrations, 48 h
Procedure: (§4) This test was used to confirm the cytotoxicity of the test samples. The cancer cells after exposure to crude ethanolic extracts and active compounds for 48 h were harvested and washed with ice-cold PBS, pH 7.4 for 3 times. Then, the cells were resuspended with PBS, pH 7.4. The cell suspensions were diluted with PBS, pH 7.4 at the appropriate dilution before being mixed with 0.2% trypan blue solution at 1:2 dilution for cell count on a hemocytometer. From this test, the viable cells and the dead cells could also be obviously detected.
as §4, with “crude ethanolic extracts and active compounds. KG-1a” for “the test samples. The cancer”

[3] = system: WT1 protein expression in KG-1a cells; assay: WT1 protein expression in KG-1a cells by Western blotting; format: cell-based, human; details: IC20 concentrations, 48 h, normalized to GAPDH
Procedure: (§5) KG-1a cells (1.5 × 10^5 cells/mL) were treated with compounds or extracts at different incubation times. Then, the cells were harvested and the whole proteins were extracted using a RIPA buffer (25 mM Tris-base, pH 7.6, 0.1% SDS, 1% Triton X-100, 150 mM NaCl, and 1 mM EDTA). The protein concentration was measured using the Folin-Lowry or Bradford assay. The whole protein lysates (30 µg/lane) were then separated through 7.5% SDS-PAGE under reducing conditions and then transferred to PVDF membranes. The membranes were blocked in 5% skim milk in PBS, pH 7.4 at RT for 2 h, then, target proteins were probed with specific primary antibodies (anti-WT1, anti-CD34, anti-GAPDH, anti-cleaved caspase-3, anti-cleaved PARP, anti-phospho-Akt, anti-phospho-c-Jun, anti-phospho-SAPK/JNK, and anti-YAP/TAZ) indicated in Table S10 which diluted at a ratio of 1:1,000 in PBS, pH 7.4 at RT for 2 h. After incubation, the membranes were rinsed 6 times with 0.1% Tween-20 (Sigma-Aldrich, MA, USA) in PBS, pH 7.4 (PBS-T), each time for 5 min. The reaction was followed by HRP-conjugated secondary antibody at 1:20,000 dilution in PBS, pH 7.4 at RT for 2 h, then, the membranes were rinsed 6 times for 5 min each with PBS-T. The proteins were shown using Immobilon Forte Western HRP substrate (Millipore, MA, USA). Finally, the protein band signal was quantified by using a scan densitometer (Bio-Rad Laboratories, CA, USA).

[4] = system: CD34 protein expression in KG-1a cells; assay: CD34 protein expression in KG-1a cells by Western blotting; format: cell-based, human; details: IC20 concentrations, 48 h, normalized to GAPDH
Procedure: as §5

[5] = KG-1a, 48 h, active compounds and drugs, MTT, 48 h, read-out: IC50 KG-1a
[6] = KG-1a, Table S7, KG-1a, first replicate, read-out: IC50 value R1
[7] = KG-1a, Table S7, KG-1a, second replicate, read-out: IC50 value R2
[8] = KG-1a, Table S7, KG-1a, third replicate, read-out: IC50 value R3
[9] = Table S8, PBMCs, first replicate, read-out: IC50 value R1
[10] = Table S8, PBMCs, second replicate, read-out: IC50 value R2
[11] = Table S8, PBMCs, third replicate, read-out: IC50 value R3
[12] = active compounds and drugs, MTT, 48 h, read-out: IC50 PBMCs
[13] = KG-1a, Table S7, KG-1a, mean of R1-R3, read-out: IC50 value Mean
[14] = Table S8, PBMCs, mean of R1-R3, read-out: IC50 value Mean
[15] = KG-1a, 48 h, drugs, MTT, 48 h, read-out: IC50 KG-1a
[16] = drugs, MTT, 48 h, read-out: IC50 PBMCs

Row | SMILES | IC50 (KG-1a cells [1]; [5]) [µg/mL] | IC50 (KG-1a cells [1]; [6]) [µg/mL] | IC50 (KG-1a cells [1]; [7]) [µg/mL] | IC50 (KG-1a cells [1]; [8]) [µg/mL] | Selectivity index (SI) (KG-1a cells [1]; 48 h) | IC50 (PBMCs; [9]) [µg/mL] | IC50 (PBMCs; [10]) [µg/mL] | IC50 (PBMCs; [11]) [µg/mL] | IC50 (PBMCs; [12]) [µg/mL] | IC20 (PBMCs) [µg/mL] | IC50 (KG-1a cells [1]; [13]) [µg/mL] | IC50 (PBMCs; [14]) [µg/mL] | IC50 (KG-1a cells [1]; [15]) [µg/mL] | IC50 (PBMCs; [16]) [µg/mL] | also measured
1 | O=C(/C=C/c1ccc(O)cc1)CC(=O)/C=C/c1ccc(O)cc1 [Bisdemethoxycurcumin, bisdemethoxycurcumin] | 17.9 ± 0.99 (≈ 58.1 µM) | 17.1 (≈ 55.6 µM) | 17.6 (≈ 57 µM) | 19 (≈ 61.7 µM) | 0.65 | 12.6 (≈ 40.7 µM) | 12.2 (≈ 39.4 µM) | 10.2 (≈ 33.1 µM) | 11.6 ± 1.25 (≈ 37.8 µM) | 6.9 ± 1.59 (≈ 22.4 µM) |  |  |  |  | IC20 (KG-1a cells [1]; KG-1a, 48 h): 7.97 ± 2.07 µg/mL (≈ 25.8 µM); IC20 (RAW264.7 cells; RAW264.7, incubation for 48 h): 2.71 ± 0.62 µg/mL (≈ 8.79 µM); decrease of total cell number compared to VC (KG-1a cells [2]): 47.21 ± 7.98%; normalized viable cell counts (KG-1a cells [2]): 962.81 ± 19.30 × 10^3 cells per 1 million total cells
2 | O=P1(N(CCCl)CCCl)NCCCO1 (centres unmarked) [Cyclophosphamide, cyclophosphamide, reference compound] |  |  |  |  |  |  |  |  |  |  |  |  |  |  | IC50 (KG-1a cells [1]; KG-1a, 48 h, read-out: IC50 KG-1a): > 400 µg/mL; IC50 (KG-1a cells [1]; KG-1a, read-out: IC50 value Mean): > 400 µg/mL; IC50 (KG-1a cells [1]; KG-1a, read-out: IC50 value R1): > 400 µg/mL; IC50 (KG-1a cells [1]; KG-1a, read-out: IC50 value R2): > 400 µg/mL; IC50 (KG-1a cells [1]; KG-1a, read-out: IC50 value R3): > 400 µg/mL; IC50 (PBMCs; 48 h, read-out: IC50 PBMCs): > 400 µg/mL; IC50 (PBMCs; read-out: IC50 value Mean): > 400 µg/mL; IC50 (PBMCs; read-out: IC50 value R1): > 400 µg/mL; IC50 (PBMCs; read-out: IC50 value R2): > 400 µg/mL; IC50 (PBMCs; read-out: IC50 value R3): > 400 µg/mL
3 | Nc1ccn([C@@H]2O[C@H](CO)[C@@H](O)[C@@H]2O)c(=O)n1 [Cytarabine, cytarabine, reference compound] | > 100 | > 100 | > 100 | > 100 | > 1 | > 100 | > 100 | > 100 | > 100 |  | > 100 | > 100 |  |  | 
4 | COc1cc(/C=C/C(O)=C/C(=O)/C=C/c2ccc(O)cc2)ccc1O [Demethoxycurcumin, demethoxycurcumin] |  |  |  |  | 1.23 | 14.2 (≈ 41.8 µM) | 13.6 (≈ 40.2 µM) | 13.9 (≈ 41 µM) | 13.9 ± 0.28 (≈ 41 µM) | 7.95 ± 0.26 (≈ 23.5 µM) |  |  |  |  | IC50 (KG-1a cells [1]; KG-1a, active compounds and drugs, MTT, 48 h, read-out: IC50 KG-1a): 11.3 ± 0.85 µg/mL (≈ 33.3 µM); IC20 (KG-1a cells [1]; KG-1a): 3.69 ± 0.53 µg/mL (≈ 10.9 µM); IC50 (KG-1a cells [1]; Table S7, KG-1a, first replicate, read-out: IC50 value R1): 10.3 µg/mL (≈ 30.5 µM); IC50 (KG-1a cells [1]; Table S7, KG-1a, second replicate, read-out: IC50 value R2): 11.6 µg/mL (≈ 34.4 µM); IC50 (KG-1a cells [1]; Table S7, KG-1a, third replicate, read-out: IC50 value R3): 11.9 µg/mL (≈ 35.1 µM); Selectivity index (SI) (KG-1a cells [1]; 48 h, listed as demethoxycurcumin): greater than 1; IC20 (RAW264.7 cells; RAW264.7, 48 h): 5.94 ± 2.02 µg/mL (≈ 17.6 µM); decrease of WT1 protein level compared to VC [3]: 33.37 ± 3.87%; decrease of CD34 protein level compared to VC [4]: 32.79 ± 1.56%
5 | COc1cccc2c1C(=O)c1c(O)c3c(c(O)c1C2=O)C[C@@](O)(C(=O)CO)C[C@@H]3O[C@H]1C[C@H](N)[C@H](O)[C@H](C)O1 [Doxorubicin, doxorubicin, reference compound] |  | 0.807 (≈ 1.48 µM) | 0.622 (≈ 1.14 µM) | 0.528 (≈ 0.971 µM) | > 1.53 | > 1 | > 1 | > 1 |  |  |  | > 1 | 0.652 ± 0.142 (≈ 1.2 µM) | > 1 | Selectivity index (SI) (KG-1a cells [1]; 48 h, listed as doxorubicin): greater than 1
6 | CC(=O)[C@]1(O)Cc2c(O)c3c(c(O)c2[C@@H](O[C@H]2C[C@H](N)[C@H](O)[C@H](C)O2)C1)C(=O)c1ccccc1C3=O [Idarubicin, idarubicin, reference compound] |  | 0.0259 (≈ 0.052 µM) | 0.0318 (≈ 0.0639 µM) | 0.026 (≈ 0.0522 µM) |  | > 1 | > 1 | > 1 |  |  | 0.0279 (≈ 0.0561 µM) | > 1 | 0.0313 ± 0.00504 (≈ 0.0629 µM) | > 1 | 
